Target: T1, PD-1/PD-L1 interaction (Homo sapiens, UniProt Q9NZQ7)
T1 construct: Tag1 or Tag2 (undisclosed kit tag); purchased CisBio 63ADK000CPAPEG
Test: PD-1/PD-L1 Homogenous Time-Resolved Fluorescence (HTRF) binding assay
Conditions: Biochemical PD1/PD-L1 inhibition
Protocol: PD-L1 Enzyme Assay: Homogenous Time-Resolved Fluorescence (HTRF) Binding Assay
All binding studies were performed using PD-1/PD-L1 Binding Assay Kit from CisBio (Catalog #63ADK000CPAPEG), according to the manufacturer's protocol. The interaction between Tag1-PD-1 and […] was detected by anti-Tag1-Eu^3+ (HTRF donor) and anti-Tag2-XL665 (HTRF acceptor). When the donor and acceptor antibodies were brought to close proximity due to PD-1 and PD-L1 binding, excitation of the donor antibody triggered fluorescent resonance energy transfer (FRET) towards the acceptor antibody, which in turn emitted specifically at 665 nm. This specific signal is positively proportional to PD-1/PD-L1 interaction. The compounds blocking PD-1/PD-L1 interaction will cause a reduction in HTRF signal. The necessary reagents were mixed in the following order: 2 μl compounds (or diluents buffer), 4 μl PD-L1 protein, 4 μl PD-1 protein. After an incubation of 15 minutes, 5 μl of anti-Tag1-Eu^3+ and 5 μl of anti-Tag2-XL665 were added. The plate was sealed and incubated at RT for 1 h. The fluorescence emission was read at two different wavelengths (665 nm and 620 nm) on a BMG PheraStar® multiplate reader. Results were calculated from the 665 nm and 620 nm fluorescence signal and expressed in HTRF ratio=(665 nm/620 nm)×[…].

T1 sequence (Q9NZQ7 19-238 limits assumed): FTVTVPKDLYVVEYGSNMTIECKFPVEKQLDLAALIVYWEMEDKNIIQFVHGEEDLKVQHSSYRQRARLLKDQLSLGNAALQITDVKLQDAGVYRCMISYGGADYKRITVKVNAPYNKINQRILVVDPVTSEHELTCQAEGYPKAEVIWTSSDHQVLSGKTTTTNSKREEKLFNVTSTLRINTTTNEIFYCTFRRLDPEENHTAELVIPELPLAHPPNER

SMILES	IC50 [nM]
CCOc1nc(OCc2cccc(-c3ccccc3)c2C)ncc1CNCCC(=O)O [Compound 24]	> 500
COc1nc(OCc2cccc(-c3ccccc3)c2C)nc(OC)c1CN1CCCC2C[C@]21C(=O)O (single isomer, unassigned) [Compound 4]	< 100
Cc1c(COc2ncc(CN3CCCC[C@H]3C(=O)O)c(OCCCCO)n2)cccc1-c1ccccc1 [Compound 10, (S)-1-((4-(4-hydroxybutoxy)-2-((2-methyl-[1,1′-biphenyl]-3-yl)methoxy)pyrimidin-5-yl)methyl)piperidine-2-carboxylic acid]	100 to 500
CCOc1nc(OCc2cccc(-c3ccccc3)c2C)ncc1CN[C@@H](C)CC(=O)O [Compound 27, (S)-3-(((4-ethoxy-2-((2-methyl-[1,1′-biphenyl]-3-yl)methoxy)pyrimidin-5-yl)methyl)amino)butanoic acid]	> 500
COc1nc(OCc2cccc(-c3ccccc3F)c2C)ncc1CN1CCCC[C@H]1C(=O)O [Compound 19, (S)-1-((2-((2′-fluoro-2-methyl-[1,1′-biphenyl]-3-yl)methoxy)-4-methoxypyrimidin-5-yl)methyl)piperidine-2-carboxylic acid]	100 to 500
COc1nc(OCc2cccc(-c3ccccc3)c2C)ncc1CNCCNC(C)=O [Compound 14, N-(2-(((4-methoxy-2-((2-methyl-[1,1′-biphenyl]-3-yl)methoxy)pyrimidin-5-yl)methyl)amino)ethyl)acetamide]	100 to 500
COc1nc(OCc2cccc(-c3ccc(F)cc3)c2C)ncc1CN1CCCC[C@H]1C(=O)O [Compound 16, (S)-1-((2-((4′-fluoro-2-methyl-[1,1′-biphenyl]-3-yl)methoxy)-4-methoxypyrimidin-5-yl)methyl)piperidine-2-carboxylic acid]	> 500
COc1nc(OCc2cccc(-c3ccccc3)c2C)nc(OC)c1CNCCNC(C)=O [Compound 3, N-(2-(((4,6-dimethoxy-2-((2-methyl-[1,1′-biphenyl]-3-yl)methoxy)pyrimidin-5-yl)methyl)amino)ethyl)acetamide]	< 100
COc1nc(OCc2cccc(-c3cccc(OCCCN4CCC(F)(F)C4)c3C)c2C)ncc1CN1CCCC[C@H]1C(=O)O [Compound 13, (S)-1-((2-((3′-(3-(3,3-difluoropyrrolidin-1-yl)propoxy)-2,2′-dimethyl-[1,1′-biphenyl]-3-yl)methoxy)-4-methoxypyrimidin-5-yl)methyl)piperidine-2-carboxylic acid]	100 to 500
CCOc1nc(OCc2cccc(-c3ccccc3)c2C)nc(OCC)c1CNCCNC(C)=O [Compound 6, N-(2-(((4,6-diethoxy-2-((2-methyl-[1,1′-biphenyl]-3-yl)methoxy)pyrimidin-5-yl)methyl)amino)ethyl)acetamide]	100 to 500
CCOc1nc(OCc2cccc(-c3ccccc3)c2C)ncc1CNC1(C(=O)O)CC1 [Compound 23, 1-(((4-ethoxy-2-((2-methyl-[1,1′-biphenyl]-3-yl)methoxy)pyrimidin-5-yl)methyl)amino)cyclopropane-1-carboxylic acid]	100 to 500
CCOc1nc(OCc2cccc(-c3ccccc3)c2C)ncc1CN(C)CC(=O)O [Compound 2, N-((4-ethoxy-2-((2-methyl-[1,1′-biphenyl]-3-yl)methoxy)pyrimidin-5-yl)methyl)-N-methyl glycine]	> 500
CCOc1nc(OCc2cccc(-c3ccccc3)c2C)ncc1CN1CCCC[C@H]1C(=O)O [Compound 22, (S)-1-((4-ethoxy-2-((2-methyl-[1,1′-biphenyl]-3-yl)methoxy)pyrimidin-5-yl)methyl)piperidine-2-carboxylic acid]	100 to 500
COc1nc(OCc2cccc(-c3ccc(F)cc3)c2C)ncc1CNCCNC(C)=O [Compound 1, N-(2-(((2-((4′-fluoro-2-methyl-[1,1′-biphenyl]-3-yl)methoxy)-4-methoxypyrimidin-5-yl)methyl)amino)ethyl)acetamide]	> 500
COc1nc(OCc2cccc(-c3ccccc3)c2C)ncc1CN1CCCC[C@@H]1C(=O)O [Compound 15, (R)-1-((4-methoxy-2-((2-methyl-[1,1′-biphenyl]-3-yl)methoxy)pyrimidin-5-yl)methyl)piperidine-2-carboxylic acid]	100 to 500
Cc1c(COc2ncc(CN3CCCC[C@H]3C(=O)O)c(OCc3ccc(F)c(C#N)c3)n2)cccc1-c1ccccc1 [Compound 8, (S)-1-((4-((3-cyano-4-fluorobenzyl)oxy)-2-((2-methyl-[1,1′-biphenyl]-3-yl)methoxy)pyrimidin-5-yl)methyl)piperidine-2-carboxylic acid]	> 500
Cc1c(COc2ncc(CN3CCCC[C@H]3C(=O)O)c(OCC(F)(F)F)n2)cccc1-c1ccccc1 [Compound 9, (S)-1-((2-((2-methyl-[1,1′-biphenyl]-3-yl)methoxy)-4-(2,2,2-trifluoroethoxy)pyrimidin-5-yl)methyl)piperidine-2-carboxylic acid]	> 500

The next lines start with the values.

IC50 [nM]	SMILES
100 to 500	Cc1c(COc2ncc(CN3C[C@H](O)C[C@H]3C(=O)O)c(OCc3ccc(F)c(C#N)c3)n2)cccc1-c1ccccc1 [Compound 54, (2S,4R)-1-((4-((3-cyano-4-fluorobenzyl)oxy)-2-((2-methyl-[1,1′-biphenyl]-3-yl)methoxy)pyrimidin-5-yl)methyl)-4-hydroxypyrrolidine-2-carboxylic acid]
100 to 500	CCOc1nc(OCc2cccc(-c3ccccc3)c2C)nc(OCC)c1CNC(CO)(CO)CO [Compound 41, 2-(((4,6-diethoxy-2-((2-methyl-[1,1′-biphenyl]-3-yl)methoxy)pyrimidin-5-yl)methyl)amino)-2-(hydroxymethyl)propane-1,3-diol]
100 to 500	COc1nc(OCc2cccc(-c3ccccc3)c2C)nc(OC)c1CN1CCC[C@H]1C(=O)O [Compound 36, ((4,6-dimethoxy-2-((2-methyl-[1,1′-biphenyl]-3-yl)methoxy)pyrimidin-5-yl)methyl)-L-proline]
> 500	CC(=O)NCCNCc1cnc(OCc2cccc(-c3ccccc3)c2C)nc1OCc1ccc(F)c(C#N)c1 [Compound 53, N-(2-(((4-((3-cyano-4-fluorobenzyl)oxy)-2-((2-methyl-[1,1′-biphenyl]-3-yl)methoxy)pyrimidin-5-yl)methyl)amino)ethyl)acetamide]
< 100	COc1nc(OCc2cccc(-c3ccccc3)c2C)nc(OC)c1CN1C[C@H](O)C[C@H]1C(=O)O [Compound 34, (2S,4R)-1-((4,6-dimethoxy-2-((2-methyl-[1,1′-biphenyl]-3-yl)methoxy)pyrimidin-5-yl)methyl)-4-hydroxypyrrolidine-2-carboxylic acid]
100 to 500	CC(=O)NCCNCc1cnc(OCc2cccc(-c3ccccc3)c2C)nc1C [Compound 65, N-(2-(((4-methyl-2-((2-methyl-[1,1′-biphenyl]-3-yl)methoxy)pyrimidin-5-yl)methyl)amino)ethyl)acetamide]
< 100	Cc1nc(OCc2cccc(-c3ccccc3)c2C)ncc1CN1CCCC[C@H]1C(=O)O [Compound 64, (S)-1-((4-methyl-2-((2-methyl-[1,1′-biphenyl]-3-yl)methoxy)pyrimidin-5-yl)methyl)piperidine-2-carboxylic acid]
100 to 500	CCOc1nc(OCc2cccc(-c3ccccc3)c2C)ncc1CN[C@H](C)C(=O)O [Compound 28, ((4-ethoxy-2-((2-methyl-[1,1′-biphenyl]-3-yl)methoxy)pyrimidin-5-yl)methyl)-D-alanine]
< 100	COc1nc(OCc2cccc(-c3ccccc3)c2C)nc(OC)c1CNC(CO)(CO)CO [Compound 35, 2-(((4,6-dimethoxy-2-((2-methyl-[1,1′-biphenyl]-3-yl)methoxy)pyrimidin-5-yl)methyl)amino)-2-(hydroxymethyl)propane-1,3-diol]
< 100	COc1nc(OCc2cccc(-c3ccc4c(c3)OCCO4)c2C)nc(OC)c1CN1CCCC[C@H]1C(=O)O [Compound 55, (S)-1-((2-((3-(2,3-dihydrobenzo[b][1,4]dioxin-6-yl)-2-methylbenzyl)oxy)-4,6-dimethoxypyrimidin-5-yl)methyl)piperidine-2-carboxylic acid]
> 500	Cc1c(COc2ncc(CN3CCCCC3C(=O)O)c(OCc3ccccc3)n2)cccc1-c1ccccc1 (stereo not shown) [Compound 33, 1-((4-(benzyloxy)-2-((2-methyl-[1,1′-biphenyl]-3-yl)methoxy)pyrimidin-5-yl)methyl)piperidine-2-carboxylic acid]
> 500	COc1nc(OCc2cccc(-c3ccccc3)c2C)ncc1CN1CC2(CC2)C[C@H]1C(=O)O [Compound 51, (S)-5-((4-methoxy-2-((2-methyl-[1,1′-biphenyl]-3-yl)methoxy)pyrimidin-5-yl)methyl)-5-azaspiro[2.4]heptane-6-carboxylic acid]
100 to 500	COc1nc(OCc2cccc(-c3ccccc3)c2C)nc(OC)c1CN1CCOCC1CC(=O)O (stereo not shown) [Compound 44, 2-(4-((4,6-dimethoxy-2-((2-methyl-[1,1′-biphenyl]-3-yl)methoxy)pyrimidin-5-yl)methyl)morpholin-3-yl)acetic acid]
100 to 500	CCOc1nc(OCc2cccc(-c3ccccc3)c2C)ncc1CN1C[C@H](O)CC1C(=O)O (stereo in doubt) [Compound 30, (2R,4R)-1-((4-ethoxy-2-((2-methyl-[1,1′-biphenyl]-3-yl)methoxy)pyrimidin-5-yl)methyl)-4-hydroxypyrrolidine-2-carboxylic acid]
